Laboratory results: US7601739B2, “Compounds having antiestrogenic and tissue selective estrogenic properties, and compounds with anti-androgenic properties for treatment of prostate cancer and androgen receptor dependent diseases” (Virgina Commonwealth University, priority 2006, dated 2009)

Experiments:
[1] = molecular target: T1, hERα D351Y (Homo sapiens, UniProt P03372, D351Y); assay: Transient transfection reporter assay with hERα D351Y mutant; format: cell-based
T1 construct: mammalian expression plasmid containing full length human ER cDNA, pCMV-hER; expressed in transfected cells
T1 sequence (P03372 1-595 D351Y): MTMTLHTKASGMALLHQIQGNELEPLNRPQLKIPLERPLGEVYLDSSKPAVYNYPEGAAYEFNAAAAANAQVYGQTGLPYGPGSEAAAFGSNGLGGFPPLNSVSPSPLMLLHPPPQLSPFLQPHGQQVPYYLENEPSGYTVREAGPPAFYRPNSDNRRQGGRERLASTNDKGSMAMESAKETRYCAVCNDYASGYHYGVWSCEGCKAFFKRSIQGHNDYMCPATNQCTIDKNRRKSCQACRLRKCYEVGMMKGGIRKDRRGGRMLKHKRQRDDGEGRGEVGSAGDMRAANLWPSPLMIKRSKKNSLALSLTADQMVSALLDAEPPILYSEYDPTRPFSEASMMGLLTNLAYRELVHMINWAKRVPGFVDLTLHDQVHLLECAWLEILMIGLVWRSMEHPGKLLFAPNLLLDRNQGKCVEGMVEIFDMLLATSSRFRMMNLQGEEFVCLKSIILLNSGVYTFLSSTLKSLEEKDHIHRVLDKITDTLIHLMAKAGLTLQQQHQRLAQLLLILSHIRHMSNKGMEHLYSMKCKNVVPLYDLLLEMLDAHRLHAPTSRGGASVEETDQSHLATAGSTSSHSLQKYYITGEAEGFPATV
Method: The tyrosine mutation (pCMV-D351Y) at amino acid 351 was introduced by using the Quick Change Site-Directed Mutagenesis Kit (Stratagene, La Jolla, Calif.) and pCMV-ER was used as the template. The primers constructed were as follows: 5′ primer (5′-[…]-3′) (SEQ ID NO. 9), the underlined nucleotide was changed to make the D351Y mutation) and a 3′ primer (5′-[…]-3′) (SEQ ID NO. 10).
For the transient transfection reporter assays, the cells were plated in triplicate in 12-well plates at a density of 300000 cells/well in the phenol red-free DMEM (GIBCO/BRL, Grand Island, N.Y.) supplemented with 10% charcoal-stripped fetal bovine serum (Hyclone, Logan, Utah), Penicillin (100 unit/ml)/Streptomycin ([…]), 2 mML-glutamine and 1 mM sodium Pyruvate. 24 hrs later, the cells were transfected with three plasmids by using Superfect transfection kit (Qiagen, Valencia, Calif.). For the detection of hER activity, cells were transfected with 2 g hER expression plasmid (pCMV-ER ), 6 g luciferase reporter plasmid containing estrogen receptor response element (PGL-TATA-Luc), and 600 ng normalization control, β-galactosidase reporter plasmid (pCMV ). For the detection of hER activity, cells were transfected with 3 ug hER expression plasmid (pcDNA3.1-hER), 6 g luciferase reporter plasmid containing estrogen receptor response element (PGL-TATA-Luc), and 600 ng pCMV. For determining the influence of ER's major coactivator in breast, AIB 1, 2 g pcDNA3.1-AIB1 was added into the transfection plasmid solution mentioned previously.
The transfected cells were rinsed with PBS and treated with various concentrations of test molecules and one […] (vehicle, DMSO or methanol) in phenol red-free culture medium. After incubation for further 24 hrs, the cells were washed with PBS and lysed with lysis buffer (Pierce, Rockford, Ill.). The lysate was used to determine the luciferase activity for ER's activity and the β-galactosidase activity for the normalization of transfection efficiency.
For the luciferase activity assay, 20 μl of lysate and 100 μl luciferase assay buffer (Promega, Madison, Wis.) were added into a well of 96-well plate. The luminescence was detected by using luminescence microplate reader, LumiCount (Packard, Boston, Mass.). For the β-galactosidase activity assay, […] β-galactosidase assay buffer (Clontech, Palo Alto, Calif.) were added into a well of 96-well plate. The β-galactosidase activity was measured as luminescence strength by using luminescence microplate reader, LumiCount (Packard, Boston, Mass.). The normalized reporter activity was calculated by the luciferase activity divided by that of β-galactosidase.
Amino acid 351 (D351) of hERα plays an essential role in regulating estrogenic or antiestrogenic compound's binding to hERα and the recruitment of corepressors. […] Based on this observation the hERα D351Y mutant is generated by PCR-based site directed mutagenesis method for use in the transient transfection reporter assay. The main goal of this testing is to elucidate the existence of the pure antiestrogenic property of the compounds of the invention and to determine whether the compounds estrogenic activity will increase due to the presence of hERα D351Y or not.
In this assay, DMSO was used as reference.

[2] = system: MDA-MB-231 cells; assay: hER negative breast cancer cell proliferation assay; format: cell-based, human; conditions: hER negative cell line
Method: MCF-7 or MDA-MB-231 cells were inoculated into 12-well culture plates at 10000 cells in 2 ml maintained medium per well. Cells were allowed to attach to the bottom for 24 hrs incubation, then the seeding medium was removed and replaced by the experimental medium (phenol red-free DMEM supplemented with 5% charcoal-stripped fetal bovine serum and Penicillin (100 unit/ml)/Streptomycin ([…])). After 24 hr incubation, the test molecules dissolved in DMSO were added in the wells. […] The culture was continued for 3 days and the medium and tested compounds were replaced every two days. The final cell numbers were estimated with CellTiter proliferation assay kit (Promega, Madison, Wis.) by measuring the absorbance at 570 nm, which is directly proportional to the number of living cells in the culture.
In this assay, MDA-MB-231 breast cancer cell line, a hER negative cell line, was used. DMSO was used as reference.

[3] = system: hER; assay: Fluorescence-based competitive binding assay for hER (displacement of fluormone ES2); set-up: species or system human; conditions: for Relative Binding Affinity: RBA = IC50 of tamoxifen/IC50 of test molecule, tamoxifen set at 1
Method: The estrogen receptor competitor assay kits (Panvera, Madison, Wis.) were used to determine the ability of test molecules to displace the fluormone, ES2, from hER -ES2 or hER -ES2 complex. Serial dilutions of each test molecule were prepared in methanol or DMSO. The recombinant hER or hER (7 nM) was preincubated with ES2 (1 nM) in screening buffer. After the preincubation, the test molecules and ER-ES2 complex solution were added into the 96-well microplate to produce a final volume of 100 μl per well. The reaction was incubated at room temperature for 1 hr and the polarization values were measured by using fluorescence microplate reader, Polarion (Tecan, Research Triangle Park, N.C.) with excitation wavelength 495 nm and emission wavelength 535 nm. The polarization value versus test molecule concentration curves was analyzed by graphfit software to generate IC50 values.
In this assay, recombinant hER and the commercial synthetic estrogen, ES2 containing fluorescence polarization property, are used. This assay is a homogenous assay. When the assay solution only contains ES2, the solution exerts weak fluorescence polarization property due to the quick rotation of free ES2 molecule. […] Addition of the antiestrogen to the ES2/hER displaces ES2 from hER and results in the whole solution exerting less fluorescence polarization property than the solution without antiestrogen.

With `CCCCNC(=O)CCCCCCCCCCOCC1Cc2ccccc2CN1C(=O)c1cccc(O)c1` (stereo not shown) [Compound 6] the “estrogenic activity against hERα D351Y compared with hERα wild type (FIG. 5)” value [1] was “do not increase”, the “estrogenic effects against mutant hERα D351Y compared with DMSO (FIG. 5)” value (“estrogenic effects … compared with DMSO (FIG. 5)” below) [1] was “even lower than that of DMSO” and the “proliferation effects against MDA-MB-231 cells (FIG. 6, words)” value [2] was “do not inhibit or stimulate the growth”. The “binding affinity for hER compared with tamoxifen” value [3] was “highest binding affinity and higher than tamoxifen” and the “Relative Binding Affinity” value [3] was 5.0.
For `CCCCNC(=O)CCCCCCCCCCOCC1Cc2ccccc2CN1C(=O)c1cccc(OC)c1` (stereo not shown) [Compound 4], the “estrogenic activity against hERα D351Y compared with hERα wild type (FIG. 5)” value [1] was “do not increase”, the “estrogenic effects … compared with DMSO (FIG. 5)” value [1] was “even lower than that of DMSO” and the “proliferation effects against MDA-MB-231 cells (FIG. 6, words)” value [2] was “do not inhibit or stimulate the growth”. For the same compound, the “Relative Binding Affinity” value [3] was 0.192.
In the case of `CCCCNC(=O)CCCCCCCCCCOCC1Cc2ccccc2CN1C(=O)c1ccc(O)cc1` (stereo not shown) [Compound 7], the “estrogenic activity against hERα D351Y compared with hERα wild type (FIG. 5)” value [1] is reported as “do not increase”, the “estrogenic effects … compared with DMSO (FIG. 5)” value [1] is reported as “even lower than that of DMSO” and the “binding affinity for hER compared with tamoxifen” value [3] is reported as “highest binding affinity and higher than tamoxifen”. The “Relative Binding Affinity” value [3] was 1.79.
